Source: US9629921B2, “Smart pro-drugs of serine protease inhibitors” (Trustees of Tufts College, priority 2002, dated 2017)
“Also recorded” adds a separate entry of the source. Like-named read-outs stand apart in the source and are kept apart here.

Tests used:
DPP IV = DPP IV (Homo sapiens, UniProt P27487); assay: In vitro DPP IV enzyme inhibition assay; inhibitors incubated at pH 2 or pH 8, then added to enzyme assay solution at pH 8.0; assay type: biochemical
Experimental: Inhibitors were incubated overnight in pH 2 or pH 8 solutions and then added directly to an enzyme assay solution at pH 8.0.
It is important to note that the x-axis in FIG. 3 refers to the concentration of the SPI, not the concentration of the released Xaa-boroPro.

male Sprague-Dawley rats [1] = assay: Example 10: clinical signs and mortality after single oral administration in male rats; details: 2.5 mg/kg ALA-PRO boronic dose equivalents;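 further: test articles given by mouth, formulated in deionized Type I water as vehicle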
male Sprague-Dawley rats [2] = details: rat, in vivo
Serum DPP IV [3] = target: T1, Serum DPP IV (Rattus norvegicus, UniProt P14740); assay: Serum DPP IV activity in rats as a function of time after dosing; assay type: in vivo
T1 construct: Serum DPP IV activity in rats as a function of time; from tissue; host or cells: rat serum
T1 sequence (P14740 37-767 limits assumed): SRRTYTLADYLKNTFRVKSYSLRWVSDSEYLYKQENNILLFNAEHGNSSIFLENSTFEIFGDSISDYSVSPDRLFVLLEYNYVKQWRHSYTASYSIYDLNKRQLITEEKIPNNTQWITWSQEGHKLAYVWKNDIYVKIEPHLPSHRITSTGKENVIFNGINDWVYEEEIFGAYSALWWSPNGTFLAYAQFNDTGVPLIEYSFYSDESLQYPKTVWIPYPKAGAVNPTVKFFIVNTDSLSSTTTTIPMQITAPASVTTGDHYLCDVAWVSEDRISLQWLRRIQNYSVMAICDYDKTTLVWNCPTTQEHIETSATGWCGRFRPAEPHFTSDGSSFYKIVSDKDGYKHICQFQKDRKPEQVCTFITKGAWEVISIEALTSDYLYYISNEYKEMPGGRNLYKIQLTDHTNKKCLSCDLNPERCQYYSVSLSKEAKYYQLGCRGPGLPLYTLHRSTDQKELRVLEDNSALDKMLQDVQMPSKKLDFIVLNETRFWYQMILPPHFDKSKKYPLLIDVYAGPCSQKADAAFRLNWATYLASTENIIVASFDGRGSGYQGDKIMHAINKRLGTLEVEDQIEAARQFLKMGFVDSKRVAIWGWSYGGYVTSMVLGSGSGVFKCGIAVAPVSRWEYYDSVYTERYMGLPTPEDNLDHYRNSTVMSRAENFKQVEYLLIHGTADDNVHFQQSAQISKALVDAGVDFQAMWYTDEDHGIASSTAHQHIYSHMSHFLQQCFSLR
Experimental: FIG. 8 Serum DPP IV activity in rats as a function of time following a single oral dose of 0.025 mg/kg. Each bar represents the average of four rats.
Each bar represents the average of four rats.

DB/DB mice [4] = assay: Fasting blood glucose in db/db (diabetic) mice; assay type: in vivo
Experimental: A dose of 1.7 mg corresponds to the 0.05 mg/kg dose.
Exendin is in phase 3 clinical trials for the treatment of type 2 diabetes (Amylin). Exendin-4 is widely regarded as the most powerful agent currently know for lowering fasting blood glucose levels and for improving glycemic control in diabetics.

DB/DB mice [5] = test system: DB/DB mice
Zucker rats = assay: Toxicity (mortality) after oral dose in rats; assay type: in vivo; details: rats, dose equivalent to 0.35 mg/kg of Val-boroPro (FIG. 6)
serum DPP IV [6] = target: serum DPP IV (Mus musculus, UniProt P28843); assay: In vivo inhibition of serum DPP IV in db/db mice after oral dose; details: for activity at 0.0025 mg/kg / activity at 0.01 mg/kg / activity at 0.025 mg/kg: mouse, iv, Diabetic-control = 100.00; for activity at 0.0025 mg/kg: read-out: In vivo inhibition of serum DPP IV, 0.0025 mg/kg; for activity at 0.01 mg/kg: read-out: In vivo inhibition of serum DPP IV, 0.01 mg/kg; for activity at 0.025 mg/kg: read-out: In vivo inhibition of serum DPP IV, 0.025 mg/kg
Chain of serum DPP IV (P28843 37-760 limits assumed): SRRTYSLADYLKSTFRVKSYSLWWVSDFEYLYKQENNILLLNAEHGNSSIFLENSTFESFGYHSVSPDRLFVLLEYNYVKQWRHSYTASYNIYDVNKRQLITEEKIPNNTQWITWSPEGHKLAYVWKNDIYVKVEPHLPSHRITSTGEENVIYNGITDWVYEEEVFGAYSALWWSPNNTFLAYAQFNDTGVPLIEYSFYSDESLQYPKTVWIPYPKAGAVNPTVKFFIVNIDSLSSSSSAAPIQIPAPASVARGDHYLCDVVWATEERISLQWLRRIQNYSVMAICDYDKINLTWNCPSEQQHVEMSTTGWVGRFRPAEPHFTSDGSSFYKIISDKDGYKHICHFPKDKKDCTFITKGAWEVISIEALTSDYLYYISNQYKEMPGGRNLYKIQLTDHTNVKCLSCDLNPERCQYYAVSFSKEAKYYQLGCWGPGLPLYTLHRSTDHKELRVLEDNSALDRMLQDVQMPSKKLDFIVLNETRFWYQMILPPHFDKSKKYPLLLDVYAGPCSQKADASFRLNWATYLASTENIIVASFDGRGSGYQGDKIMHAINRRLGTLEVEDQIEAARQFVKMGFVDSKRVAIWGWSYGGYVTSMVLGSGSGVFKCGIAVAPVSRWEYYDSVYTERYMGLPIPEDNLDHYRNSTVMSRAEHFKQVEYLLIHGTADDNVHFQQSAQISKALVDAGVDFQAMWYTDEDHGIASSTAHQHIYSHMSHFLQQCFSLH

[7] = pH 2, ten minutes, read-out: IC50 Values at Ten Minutes pH 2
[8] = pH 8, ten minutes, read-out: IC50 Values at Ten Minutes pH 8

Chain of DPP IV (P27487 whole entry, species assumed): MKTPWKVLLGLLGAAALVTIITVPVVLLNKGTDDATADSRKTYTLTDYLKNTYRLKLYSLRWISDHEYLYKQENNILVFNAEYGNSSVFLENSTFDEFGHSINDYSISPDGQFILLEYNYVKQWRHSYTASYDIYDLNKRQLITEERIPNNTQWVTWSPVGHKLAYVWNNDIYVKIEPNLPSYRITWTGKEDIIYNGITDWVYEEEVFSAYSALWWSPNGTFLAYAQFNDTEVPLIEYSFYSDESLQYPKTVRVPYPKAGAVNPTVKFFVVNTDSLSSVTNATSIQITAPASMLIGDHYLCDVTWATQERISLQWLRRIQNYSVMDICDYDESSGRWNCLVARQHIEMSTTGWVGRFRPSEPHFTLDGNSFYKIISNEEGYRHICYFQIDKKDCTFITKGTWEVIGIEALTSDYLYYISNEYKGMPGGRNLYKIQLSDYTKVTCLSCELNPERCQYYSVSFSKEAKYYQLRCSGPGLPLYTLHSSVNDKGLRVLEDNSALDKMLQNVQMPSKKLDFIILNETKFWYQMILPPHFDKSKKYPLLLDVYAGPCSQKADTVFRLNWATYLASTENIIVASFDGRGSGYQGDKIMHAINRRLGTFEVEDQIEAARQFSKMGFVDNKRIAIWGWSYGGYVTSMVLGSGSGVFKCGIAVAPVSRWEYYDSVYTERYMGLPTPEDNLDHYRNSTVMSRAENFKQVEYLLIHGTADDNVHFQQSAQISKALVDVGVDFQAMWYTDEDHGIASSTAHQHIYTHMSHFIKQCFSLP

Compound: CNCC(=O)N1CC=CC1C(=O)NC(C)C(=O)N1CCCC1B(O)O (stereo not drawn) [SarDhpAlaboroPro, N-Me-Gly-3,4 dehydroproline-ALA-PRO Boronic Acid]
- IC50 (DPP IV; [7]): 39 nM
- IC50 (DPP IV; [8]): 34 nM
- Approximate Time of Sacrifice or Time Animal was Found Dead (hr post-dose) (male Sprague-Dawley rats [1]): ~4 h (sacrificed)
- Approximate Time of Sacrifice or Time Animal was Found Dead (hr post-dose) (male Sprague-Dawley rats [2]): ~7 h (found dead)

Compound: CC(C)C(NC(=O)C1CCCN1C(=O)C(N)C1CCCCC1)C(=O)N1CCCC1B(O)O (stereo not drawn) [ChgProValboroPro, Cyclohexylglycine-Proline-Valine-boroPro line]
- IC50 (DPP IV; pH 2, read-out: Tetrapeptide Prodrugs (IC50) pH 2): 65 nM
- IC50 (DPP IV; [7]): 70 nM
- IC50 (DPP IV; pH 8, read-out: Tetrapeptide Prodrugs (IC50) pH 8): 72 nM
- IC50 (DPP IV; [8]): 70 nM
- Potency, duration and safety in vivo in rats compared with ValboroPro (Serum DPP IV [3]; rats, each bar average of four animals (FIG. 62)): more potent, longer acting, and safer than ValboroPro
- Inhibition of serum DPP IV activity compared with Val-boroPro (Serum DPP IV [3]; rats, single oral dose of 0.025 mg/kg, average of four rats (FIG. 8), 0.025 mg/kg): outperforms Val-boroPro in inhibiting serum DPP IV activity; also recorded: outperforms Val-boroPro in inhibition serum DPP IV enzyme activity
- Oral activity: serum DPP IV activity in rats (Serum DPP IV [3]; three different doses given orally (FIG. 6, 7)): very orally active; also recorded: orally active
- Lowering fasting blood glucose compared with GLP-1 (DB/DB mice [4]; db/db mice, dose of 1.7 mg corresponds to the 0.05 mg/kg dose (FIG. 65)): outperforms GLP-1 in lowering fasting blood glucose
- Lowering fasting blood glucose compared with exendin-4 (DB/DB mice [4]; diabetic (db/db) mice (FIG. 66, 67)): as effective as exendin-4 in lowering fasting blood glucose; also recorded: does about what the highest dose of exendin-4 could be expected to do
- Glucose excursion following an oral glucose challenge (DB/DB mice [5]; DB/DB mice, OGTT four hours post oral dose, dose equivalent to 0.05 mg/kg of Val-boroPro (FIG. 9)): markedly outperforms Val-boroPro in lowering the glucose excursion
- Oral glucose tolerance test performance (DB/DB mice [5]; db/db mice, single oral dose of 0.05 mg/kg three hours before oral glucose challenge (FIG. 63)): performs better than ValboroPro
- Mortality (rats killed) (Zucker rats): one of four
- Oral activity in mice compared with Val-boroPro (serum DPP IV [6]; db/db mice (Table 3)): outperforms Val-boroPro in mice
- activity at 0.0025 mg/kg (serum DPP IV [6]; 1 hr Post Rx-Glucose): 84.5%
- activity at 0.0025 mg/kg (serum DPP IV [6]; 4 hrs Post Rx-Glucose): 81.8%
- activity at 0.01 mg/kg (serum DPP IV [6]; 1 hr Post Rx-Glucose): 48.9%
- activity at 0.01 mg/kg (serum DPP IV [6]; 4 hrs Post Rx-Glucose): 40.7%
- activity at 0.025 mg/kg (serum DPP IV [6]; 1 hr Post Rx-Glucose): 34.7%
- activity at 0.025 mg/kg (serum DPP IV [6]; 4 hrs Post Rx-Glucose): 24.4%

Compound: exendin-4: in phase 3 clinical trials for the treatment of type 2 diabetes (Amylin); powerful agent for lowering fasting blood glucose [reference compound]
- Effect in lowering fasting blood glucose as a function of hyperglycemia (DB/DB mice [4]; FIG. 67): The greater the hyperglycemia the greater is the effect
